PubChem BioAssay (NCI)
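1) Cells in 96-well plates. 2) Compound, 48 h, 5 concentrations. 3) Linear interpolation between surrounding doses. 4) Unreached endpoint = highest concentration. GI50 = concentration required for 50% inhibition of growth. TGI marks complete inhibition of growth.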

What was measured:
Experiment in all cases: NCI-60 cell line screen, 48 h
786-0 renal = system: 786-0 renal
A498 renal = system: A498 renal
A549 NSCLC = system: A549 NSCLC
ACHN renal = system: ACHN renal
BT-549 breast = system: BT-549 breast
CAKI-1 renal = system: CAKI-1 renal
CCRF-CEM leukemia = system: CCRF-CEM leukemia
COLO 205 colon = system: COLO 205 colon
DU-145 prostate = system: DU-145 prostate
EKVX NSCLC = system: EKVX NSCLC
HCC-2998 colon = system: HCC-2998 colon
HCT-15 colon = system: HCT-15 colon
HL-60(TB) leukemia = system: HL-60(TB) leukemia
HOP-62 NSCLC = system: HOP-62 NSCLC
HOP-92 NSCLC = system: HOP-92 NSCLC
HS 578T breast = system: HS 578T breast
HT29 colon = system: HT29 colon
IGROV1 ovarian = system: IGROV1 ovarian
K-562 leukemia = system: K-562 leukemia
KM12 colon = system: KM12 colon
LOX IMVI melanoma = system: LOX IMVI melanoma
M14 melanoma = system: M14 melanoma
MALME-3M melanoma = system: MALME-3M melanoma
MCF7 breast = system: MCF7 breast
MDA-MB-231 breast = system: MDA-MB-231 breast
MDA-MB-435 = system: MDA-MB-435
MDA-MB-468 breast = system: MDA-MB-468 breast
MOLT-4 leukemia = system: MOLT-4 leukemia
NCI-H226 lung = system: NCI-H226 lung
NCI-H23 lung = system: NCI-H23 lung
NCI-H460 lung = system: NCI-H460 lung
NCI-H522 lung = system: NCI-H522 lung
NCI/ADR-RES ovarian = system: NCI/ADR-RES ovarian
OVCAR-3 ovarian = system: OVCAR-3 ovarian
OVCAR-4 ovarian = system: OVCAR-4 ovarian
OVCAR-5 ovarian = system: OVCAR-5 ovarian
OVCAR-8 ovarian = system: OVCAR-8 ovarian
PC-3 prostate = system: PC-3 prostate
RPMI-8226 leukemia = system: RPMI-8226 leukemia
RXF 393 renal = system: RXF 393 renal
SF-268 CNS = system: SF-268 CNS
SF-295 CNS = system: SF-295 CNS
SF-539 CNS = system: SF-539 CNS
SK-MEL-2 melanoma = system: SK-MEL-2 melanoma
SK-MEL-28 melanoma = system: SK-MEL-28 melanoma
SK-MEL-5 melanoma = system: SK-MEL-5 melanoma
SK-OV-3 ovarian = system: SK-OV-3 ovarian
SN12C renal = system: SN12C renal
SNB-19 CNS = system: SNB-19 CNS
SR leukemia = system: SR leukemia
SW-620 colon = system: SW-620 colon
T-47D breast = system: T-47D breast
TK-10 renal = system: TK-10 renal
U251 CNS = system: U251 CNS
UACC-257 melanoma = system: UACC-257 melanoma
UACC-62 melanoma = system: UACC-62 melanoma
UO-31 renal = system: UO-31 renal

What does the source list for `COc1ccc(C(=O)/C=C/c2ccc(Cl)c(Cl)c2)cc1S(N)(=O)=O`?
GI50 (786-0 renal): 1.62 µM; TGI (786-0 renal): 3.11 µM; GI50 (A498 renal): 8.86 µM; TGI (A498 renal): 22.1 µM; GI50 (A549 NSCLC): 2.17 µM; TGI (A549 NSCLC): 10.5 µM; GI50 (ACHN renal): 1.71 µM; TGI (ACHN renal): 3.11 µM; GI50 (BT-549 breast): 1.63 µM; TGI (BT-549 breast): 3.33 µM; GI50 (CAKI-1 renal): 1.75 µM; TGI (CAKI-1 renal): 4.19 µM; GI50 (CCRF-CEM leukemia): 2.7 µM; TGI (CCRF-CEM leukemia): 7.95 µM; GI50 (COLO 205 colon): 1.83 µM; TGI (COLO 205 colon): 3.43 µM; GI50 (DU-145 prostate): 3.5 µM; TGI (DU-145 prostate): 12.8 µM; GI50 (EKVX NSCLC): 2.12 µM; TGI (EKVX NSCLC): 4.73 µM; GI50 (HCC-2998 colon): 1.4 µM; TGI (HCC-2998 colon): 2.71 µM; GI50 (HCT-15 colon): 0.496 µM; TGI (HCT-15 colon): 1.81 µM; GI50 (HL-60(TB) leukemia): 1.88 µM; TGI (HL-60(TB) leukemia): 6.31 µM; GI50 (HOP-62 NSCLC): 1.89 µM; TGI (HOP-62 NSCLC): 4.75 µM; GI50 (HOP-92 NSCLC): 2.29 µM; TGI (HOP-92 NSCLC): 7.31 µM; GI50 (HS 578T breast): 6.01 µM; TGI (HS 578T breast): 52 µM; GI50 (HT29 colon): 1.46 µM; TGI (HT29 colon): 2.77 µM; GI50 (IGROV1 ovarian): 2 µM; TGI (IGROV1 ovarian): 5.13 µM; GI50 (K-562 leukemia): 2.03 µM; TGI (K-562 leukemia): 10.8 µM; GI50 (KM12 colon): 0.888 µM; TGI (KM12 colon): 2.43 µM; GI50 (LOX IMVI melanoma): 0.653 µM; TGI (LOX IMVI melanoma): 1.93 µM; GI50 (M14 melanoma): 1.86 µM; TGI (M14 melanoma): 3.9 µM; GI50 (MALME-3M melanoma): 2.15 µM; TGI (MALME-3M melanoma): 5.17 µM; GI50 (MCF7 breast): 1.05 µM; TGI (MCF7 breast): 3.16 µM; GI50 (MDA-MB-231 breast): 1.99 µM; TGI (MDA-MB-231 breast): 4.11 µM; GI50 (MDA-MB-435): 2.42 µM; TGI (MDA-MB-435): 7.26 µM; GI50 (MDA-MB-468 breast): 1.47 µM; TGI (MDA-MB-468 breast): 2.98 µM; GI50 (MOLT-4 leukemia): 2.35 µM; TGI (MOLT-4 leukemia): 6.75 µM; GI50 (NCI-H226 lung): 3.04 µM; TGI (NCI-H226 lung): 13.4 µM; GI50 (NCI-H23 lung): 1.75 µM; TGI (NCI-H23 lung): 3.43 µM; GI50 (NCI-H460 lung): 2.72 µM; TGI (NCI-H460 lung): 8.22 µM; GI50 (NCI-H522 lung): 1.58 µM; TGI (NCI-H522 lung): 3.16 µM; GI50 (NCI/ADR-RES ovarian): 2.25 µM; TGI (NCI/ADR-RES ovarian): 5.93 µM; GI50 (OVCAR-3 ovarian): 1.19 µM; TGI (OVCAR-3 ovarian): 2.55 µM; GI50 (OVCAR-4 ovarian): 1.6 µM; TGI (OVCAR-4 ovarian): 2.97 µM; GI50 (OVCAR-5 ovarian): 1.6 µM; TGI (OVCAR-5 ovarian): 3.34 µM; GI50 (OVCAR-8 ovarian): 2 µM; TGI (OVCAR-8 ovarian): 5.75 µM; GI50 (PC-3 prostate): 1.86 µM; TGI (PC-3 prostate): 5.07 µM; GI50 (RPMI-8226 leukemia): 1.67 µM; TGI (RPMI-8226 leukemia): 5.96 µM; GI50 (RXF 393 renal): 1.74 µM; TGI (RXF 393 renal): 3.5 µM; GI50 (SF-268 CNS): 2.91 µM; TGI (SF-268 CNS): 11.9 µM; GI50 (SF-295 CNS): 1.74 µM; TGI (SF-295 CNS): 3.77 µM; GI50 (SF-539 CNS): 1.67 µM; TGI (SF-539 CNS): 3.25 µM; GI50 (SK-MEL-2 melanoma): 5.66 µM; TGI (SK-MEL-2 melanoma): 18.6 µM; GI50 (SK-MEL-28 melanoma): 1.75 µM; TGI (SK-MEL-28 melanoma): 3.26 µM; GI50 (SK-MEL-5 melanoma): 2.45 µM; TGI (SK-MEL-5 melanoma): 6.89 µM; GI50 (SK-OV-3 ovarian): 5.53 µM; TGI (SK-OV-3 ovarian): 18 µM; GI50 (SN12C renal): 1.39 µM; TGI (SN12C renal): 2.74 µM; GI50 (SNB-19 CNS): 1.88 µM; TGI (SNB-19 CNS): 4.21 µM; GI50 (SR leukemia): 0.797 µM; TGI (SR leukemia): 10.2 µM; GI50 (SW-620 colon): 1.34 µM; TGI (SW-620 colon): 3.52 µM; GI50 (T-47D breast): 1.97 µM; TGI (T-47D breast): 5.57 µM; GI50 (TK-10 renal): 2.02 µM; TGI (TK-10 renal): 5.89 µM; GI50 (U251 CNS): 1.41 µM; TGI (U251 CNS): 2.93 µM; GI50 (UACC-257 melanoma): 2.5 µM; TGI (UACC-257 melanoma): 8.99 µM; GI50 (UACC-62 melanoma): 1.48 µM; TGI (UACC-62 melanoma): 2.96 µM; GI50 (UO-31 renal): 1.27 µM; TGI (UO-31 renal): 2.52 µM
